From US20240317777A1, “NOVEL MACROCYCLIC AMINOPYRAZOLE COMPOUNDS AS CDK2 INHIBITORS” (Accutar Biotechnology Inc., priority 2023, published 2024) come the findings set out here.

For series [1] the following is noted: the molecule shown is the open-chain precursor, other bond, DIEA, THF.
For series [2] the following is noted: the molecule shown is the open-chain precursor, other bond, 18-membered ring, DIEA, THF.
The conditions of series [3]: the molecule shown is the open-chain precursor; other bond; 18-membered ring; DIEA; THF; 1.83 mM; 80.0 °C.

Each structure is given as a SMILES string. Read-outs that look alike come from different tables or passages of the source.

In series [1] (18-membered ring, 3.27 mM, 30.0 °C), `CC(C)(C)n1nc([C@H]2CC[C@@H](OC(=O)Oc3ccc([N+](=O)[O-])cc3)C2)cc1Nc1cc(CCCCCN)nc(C(F)F)c1` registered a ring closure, isolated yield of 44.1%.

`CC(C)(C)n1nc([C@H]2CC[C@@H](OC(=O)Oc3ccc([N+](=O)[O-])cc3)C2)cc1Nc1ccnc(OCC2CC(N)C2)c1` (stereo partly shown) had a ring closure, crude yield in series [2] (1.21 mM, 70.0 °C) of 96.7%.

For the compound `CC(CC12CC(N)(C1)C2)Oc1cc(Nc2cc([C@H]3CC[C@@H](OC(=O)Oc4ccc([N+](=O)[O-])cc4)C3)nn2C(C)(C)C)cc(C(F)F)n1` (stereo partly shown), in series [1] (19-membered ring, 9.15 mM, 80.0 °C), the ring closure, isolated yield stood at 84.7%.

Consider `CC(OCCCN)c1cc(Nc2cc([C@H]3CC[C@@H](OC(=O)Oc4ccc([N+](=O)[O-])cc4)C3)nn2C(C)(C)C)ccn1` (stereo partly shown), for which the ring closure, crude yield in series [2] (6.34 mM, 100.0 °C) came out at 87.5%.

Turning to `C[C@H](N)CC(F)(F)COc1cc(Nc2cc([C@H]3CC[C@@H](OC(=O)Oc4ccc([N+](=O)[O-])cc4)C3)nn2C(C)(C)C)ccn1`, in series [3], the ring closure, yield after HPLC is 66.2%.

`C[C@H](N)CCCCc1cc(Nc2cc([C@H]3CC[C@@H](OC(=O)Oc4ccc([N+](=O)[O-])cc4)C3)nn2C(C)(C)C)ccn1` displayed a ring closure, crude yield in series [2] (0.92 mM, 20.0 °C) of 91.9%.

The compound `C[C@H](N)CCCOc1cc(Nc2cc([C@H]3CC[C@@H](OC(=O)Oc4ccc([N+](=O)[O-])cc4)C3)nn2C(C)(C)C)c(F)cn1` had a ring closure, crude yield in series [2] (1.71 mM, 25.0 °C) of 99.9%.

The compound `C[C@H](N)CCCOc1cc(Nc2cc([C@H]3CC[C@@H](OC(=O)Oc4ccc([N+](=O)[O-])cc4)C3)nn2C(C)(C)C)cc(F)n1` came in with a ring closure, crude yield in series [2] (1.71 mM, 25.0 °C) of 97.8%.

As for `C[C@H](N)CCCOc1cc(Nc2cc([C@H]3CC[C@@H](OC(=O)Oc4ccc([N+](=O)[O-])cc4)C3)nn2C(C)(C)C)ccn1`, the ring closure, isolated yield in series [1] (18-membered ring, 3.53 mM, 50.0 °C) came out at 84.8%.

As to `C[C@H](N)CCO[C@@H](C)c1cc(Nc2cc([C@H]3CC[C@@H](OC(=O)Oc4ccc([N+](=O)[O-])cc4)C3)nn2C(C)(C)C)ccn1`, the ring closure, crude yield in series [2] (0.55 mM, 25.0 °C) was determined as 86.5%.
